What was measured:
[1] = Compound chemical stability in PBS (pH 6.5); type: physicochemical
Description: (§1) Compounds 1-6 were assessed for their stability in various environments, including phosphate buffered saline (PBS), simulated gastric fluid (SGF) with pepsin, SGF without pepsin, and mouse plasma, using standard stability assay protocols.

[2] = Compound mouse plasma stability; type: in vitro ADME
Description: as §1

[3] = Compound chemical stability in SGF without pepsin; type: physicochemical
Description: as §1

[4] = Compound chemical stability in SGF with pepsin; type: physicochemical
Description: as §1

Row | SMILES | % Remaining ([1]; 0 minutes) [%] | % Remaining ([1]; 30 minutes) [%] | % Remaining ([1]; 60 minutes) [%] | % Remaining ([1]; 120 minutes) [%] | % Remaining ([1]; 240 minutes) [%] | % Remaining ([2]; 0 minutes) [%] | % Remaining ([2]; 30 minutes) [%] | % Remaining ([2]; 60 minutes) [%] | % Remaining ([2]; 120 minutes) [%] | % Remaining ([2]; 240 minutes) [%] | % Remaining ([3]; 0 minutes) [%] | % Remaining ([3]; 30 minutes) [%] | % Remaining ([3]; 60 minutes) [%] | % Remaining ([3]; 120 minutes) [%] | % Remaining ([3]; 240 minutes) [%] | % Remaining ([4]; 0 minutes) [%] | % Remaining ([4]; 30 minutes) [%] | % Remaining ([4]; 60 minutes) [%] | % Remaining ([4]; 120 minutes) [%] | % Remaining ([4]; 240 minutes) [%]
1 | CCOC(=O)N(CCc1cc(OC)ccc1OC)Cc1cc(C)cc(Cl)c1 [Compound 5, Ethyl (3-chloro-5-methylbenzyl)(2,5-dimethoxyphenethyl)carbamate] | 100 | 96 | 99 | 101 | 94 | 100 | 88 | 86 | 91 | 87 | 100 | 100 | 88 | 94 | 101 | 100 | 97 | 92 | 90 | 80
2 | COc1ccc(OC)c(CCN(Cc2cc(C)cc(Cl)c2)C(=O)OC(C)OC(=O)C(C)(C)C)c1 (stereo not shown) [Compound 4, 1-(((3-Chloro-5-methylbenzyl)(2,5-dimethoxyphenethyl)carbamoyl)oxy)ethyl pivalate] | 100 | 102 | 101 | 102 | 116 | 100 | 2 | 1 | 00 | 00 | 100 | 90 | 89 | 96 | 88 | 100 | 93 | 96 | 94 | 105
3 | COc1ccc(OC)c(CCN(Cc2cc(C)cc(Cl)c2)Cc2oc(=O)oc2C)c1 [Compound 2, 4-(((3-Chloro-5-methylbenzyl)(2,5-dimethoxyphenethyl)amino)methyl)-5-methyl-1,3-dioxol-2-one] | 100 | 66 | 43 | 15 | 2 | 100 | 73 | 61 | 41 | 20 | 100 | 100 | 96 | 86 | 72 | 100 | 93 | 93 | 84 | 70
4 | COc1ccc(OC)c(CCN(Cc2cc(C)cc(Cl)c2)C(=O)OCc2oc(=O)oc2C)c1 [Compound 3, (5-Methyl-2-oxo-1,3-dioxol-4-yl)methyl (3-chloro-5-methylbenzyl)(2,5-dimethoxyphenethyl)carbamate] | 100 | 97 | 94 | 89 | 67 | 100 | 00 | 00 | 00 | 00 | 100 | 105 | 109 | 106 | 107 | 100 | 105 | 105 | 93 | 106
5 | COc1ccc(OC)c(CCN(Cc2cc(C)cc(Cl)c2)C(=O)CN)c1 [Compound 6, 2-Amino-N-(3-chloro-5-methylbenzyl)-N-(2,5-dimethoxyphenethyl)acetamide] | 100 | 91 | 94 | 93 | 93 | 100 | 85 | 82 | 89 | 86 | 100 | 98 | 99 | 95 | 96 | 100 | 95 | 97 | 96 | 94
